# Assay results taken from PubChem BioAssay (NCI).
#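 GI50 is the concentration that inhibits growth by half. TGI denotes the concentration required for complete inhibition of growth.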
# Assays:
# Test in all cases: inhibition of tumour cell growth, NCI panel, 384-well format
# 786-0 renal = test system: 786-0 renal
# A498 renal = test system: A498 renal
# A549 NSCLC = test system: A549 NSCLC
# ACHN renal = test system: ACHN renal
# BT-549 breast = test system: BT-549 breast
# CAKI-1 renal = test system: CAKI-1 renal
# CCRF-CEM leukemia = test system: CCRF-CEM leukemia
# COLO 205 colon = test system: COLO 205 colon
# DU-145 prostate = test system: DU-145 prostate
# EKVX NSCLC = test system: EKVX NSCLC
# HCC-2998 colon = test system: HCC-2998 colon
# HCT-116 colon = test system: HCT-116 colon
# HCT-15 colon = test system: HCT-15 colon
# HL-60(TB) leukemia = test system: HL-60(TB) leukemia
# HOP-62 NSCLC = test system: HOP-62 NSCLC
# HOP-92 NSCLC = test system: HOP-92 NSCLC
# HS 578T breast = test system: HS 578T breast
# HT29 colon = test system: HT29 colon
# IGROV1 ovarian = test system: IGROV1 ovarian
# K-562 leukemia = test system: K-562 leukemia
# KM12 colon = test system: KM12 colon
# LOX IMVI melanoma = test system: LOX IMVI melanoma
# M14 melanoma = test system: M14 melanoma
# MALME-3M melanoma = test system: MALME-3M melanoma
# MCF7 breast = test system: MCF7 breast
# MDA-MB-435 melanoma = test system: MDA-MB-435 melanoma
# MDA-MB-468 breast = test system: MDA-MB-468 breast
# MOLT-4 leukemia = test system: MOLT-4 leukemia
# NCI-H226 lung = test system: NCI-H226 lung
# NCI-H23 lung = test system: NCI-H23 lung
# NCI-H322M lung = test system: NCI-H322M lung
# NCI-H460 NSCLC = test system: NCI-H460 NSCLC
# NCI-H522 lung = test system: NCI-H522 lung
# NCI/ADR-RES ovarian = test system: NCI/ADR-RES ovarian
# OVCAR-3 ovarian = test system: OVCAR-3 ovarian
# OVCAR-4 ovarian = test system: OVCAR-4 ovarian
# OVCAR-8 ovarian = test system: OVCAR-8 ovarian
# PC-3 prostate = test system: PC-3 prostate
# RPMI-8226 leukemia = test system: RPMI-8226 leukemia
# RXF 393 renal = test system: RXF 393 renal
# SF-268 CNS = test system: SF-268 CNS
# SF-295 CNS = test system: SF-295 CNS
# SF-539 CNS = test system: SF-539 CNS
# SK-MEL-2 melanoma = test system: SK-MEL-2 melanoma
# SK-MEL-28 melanoma = test system: SK-MEL-28 melanoma
# SK-MEL-5 melanoma = test system: SK-MEL-5 melanoma
# SK-OV-3 ovarian = test system: SK-OV-3 ovarian
# SN12C renal = test system: SN12C renal
# SNB-19 CNS = test system: SNB-19 CNS
# SNB-75 CNS = test system: SNB-75 CNS
# SW-620 colon = test system: SW-620 colon
# TK-10 renal = test system: TK-10 renal
# U251 glioblastoma = test system: U251 glioblastoma
# UACC-257 melanoma = test system: UACC-257 melanoma
# UACC-62 melanoma = test system: UACC-62 melanoma
structure (smiles),measurement,setting,value
C=C(c1ccc(N(C)C)cc1)c1ccc(N(C)C)cc1,GI50,786-0 renal,2.51 µM
same,TGI,786-0 renal,8.96 µM
same,GI50,A498 renal,2.1 µM
same,TGI,A498 renal,7.73 µM
same,GI50,A549 NSCLC,4.11 µM
same,TGI,A549 NSCLC,28.9 µM
same,GI50,ACHN renal,4.16 µM
same,TGI,ACHN renal,> 100 µM
same,GI50,BT-549 breast,1.49 µM
same,TGI,BT-549 breast,4.15 µM
same,GI50,CAKI-1 renal,2.57 µM
same,TGI,CAKI-1 renal,22.1 µM
same,GI50,CCRF-CEM leukemia,1.35 µM
same,TGI,CCRF-CEM leukemia,2.68 µM
same,GI50,COLO 205 colon,2.78 µM
same,TGI,COLO 205 colon,7.77 µM
same,GI50,DU-145 prostate,2.66 µM
same,TGI,DU-145 prostate,8.38 µM
same,GI50,EKVX NSCLC,3.38 µM
same,TGI,EKVX NSCLC,15.3 µM
same,GI50,HCC-2998 colon,1.12 µM
same,TGI,HCC-2998 colon,4.84 µM
same,GI50,HCT-116 colon,2.45 µM
same,TGI,HCT-116 colon,13.1 µM
same,GI50,HCT-15 colon,0.373 µM
same,TGI,HCT-15 colon,10.3 µM
same,GI50,HL-60(TB) leukemia,0.382 µM
same,TGI,HL-60(TB) leukemia,1.87 µM
same,GI50,HOP-62 NSCLC,2.2 µM
same,TGI,HOP-62 NSCLC,7.98 µM
same,GI50,HOP-92 NSCLC,2.45 µM
same,TGI,HOP-92 NSCLC,8.34 µM
same,GI50,HS 578T breast,1.69 µM
same,TGI,HS 578T breast,3.53 µM
same,GI50,HT29 colon,1.87 µM
same,TGI,HT29 colon,4.79 µM
same,GI50,IGROV1 ovarian,2.36 µM
same,TGI,IGROV1 ovarian,9.03 µM
same,GI50,K-562 leukemia,1.91 µM
same,TGI,K-562 leukemia,5.35 µM
same,GI50,KM12 colon,1.94 µM
same,TGI,KM12 colon,55.4 µM
same,GI50,LOX IMVI melanoma,1.91 µM
same,TGI,LOX IMVI melanoma,21.1 µM
same,GI50,M14 melanoma,1.39 µM
same,TGI,M14 melanoma,3.16 µM
same,GI50,MALME-3M melanoma,1.65 µM
same,TGI,MALME-3M melanoma,6.03 µM
same,GI50,MCF7 breast,2.16 µM
same,TGI,MCF7 breast,8.52 µM
same,GI50,MDA-MB-435 melanoma,0.28 µM
same,TGI,MDA-MB-435 melanoma,1.06 µM
same,GI50,MDA-MB-468 breast,0.142 µM
same,TGI,MDA-MB-468 breast,0.822 µM
same,GI50,MOLT-4 leukemia,0.301 µM
same,TGI,MOLT-4 leukemia,1.22 µM
same,GI50,NCI-H226 lung,4.29 µM
same,TGI,NCI-H226 lung,26.7 µM
same,GI50,NCI-H23 lung,1.75 µM
same,TGI,NCI-H23 lung,4.13 µM
same,GI50,NCI-H322M lung,5.48 µM
same,TGI,NCI-H322M lung,29.1 µM
same,GI50,NCI-H460 NSCLC,2.28 µM
same,TGI,NCI-H460 NSCLC,5.15 µM
same,GI50,NCI-H522 lung,0.628 µM
same,TGI,NCI-H522 lung,2.17 µM
same,GI50,NCI/ADR-RES ovarian,1.43 µM
same,TGI,NCI/ADR-RES ovarian,3.12 µM
same,GI50,OVCAR-3 ovarian,1.41 µM
same,TGI,OVCAR-3 ovarian,3.1 µM
same,GI50,OVCAR-4 ovarian,2.09 µM
same,TGI,OVCAR-4 ovarian,9.56 µM
same,GI50,OVCAR-8 ovarian,2.39 µM
same,TGI,OVCAR-8 ovarian,5.17 µM
same,GI50,PC-3 prostate,3.1 µM
same,TGI,PC-3 prostate,16.1 µM
same,GI50,RPMI-8226 leukemia,1.51 µM
same,TGI,RPMI-8226 leukemia,2.89 µM
same,GI50,RXF 393 renal,1.33 µM
same,TGI,RXF 393 renal,3.48 µM
same,GI50,SF-268 CNS,3.27 µM
same,TGI,SF-268 CNS,15 µM
same,GI50,SF-295 CNS,2.17 µM
same,TGI,SF-295 CNS,5.44 µM
same,GI50,SF-539 CNS,1.79 µM
same,TGI,SF-539 CNS,4.12 µM
same,GI50,SK-MEL-2 melanoma,0.48 µM
same,TGI,SK-MEL-2 melanoma,1.9 µM
same,GI50,SK-MEL-28 melanoma,2.59 µM
same,TGI,SK-MEL-28 melanoma,7.79 µM
same,GI50,SK-MEL-5 melanoma,1.36 µM
same,TGI,SK-MEL-5 melanoma,3.4 µM
same,GI50,SK-OV-3 ovarian,2.42 µM
same,TGI,SK-OV-3 ovarian,15.1 µM
same,GI50,SN12C renal,3.69 µM
same,TGI,SN12C renal,72.6 µM
same,GI50,SNB-19 CNS,2.92 µM
same,TGI,SNB-19 CNS,20.5 µM
same,GI50,SNB-75 CNS,1.25 µM
same,TGI,SNB-75 CNS,5.15 µM
same,GI50,SW-620 colon,1.15 µM
same,TGI,SW-620 colon,4.26 µM
same,GI50,TK-10 renal,2.25 µM
same,TGI,TK-10 renal,9.09 µM
same,GI50,U251 glioblastoma,3.48 µM
same,TGI,U251 glioblastoma,14.4 µM
same,GI50,UACC-257 melanoma,3.31 µM
same,TGI,UACC-257 melanoma,19.7 µM
same,GI50,UACC-62 melanoma,1.52 µM
same,TGI,UACC-62 melanoma,7.92 µM
